Literature values as cited in patent US20260014083A1, “Orally Administrable Pharmaceutical Dosage Form Comprising Lanthanum and Its Use in a Method Of Treatment of Hyperoxaluria” (AMGMT, priority 2022, published 2026).
Like-named read-outs stand apart in the source and are kept apart here. Values belong to the molecule of their own block, whether it stands above or below them.

Experiments:
[1] = tested on: rat; conditions: oxalate loading
[2] = in vivo
[3] = tested on: patients with enteric hyperoxaluria

Molecule: O=C([O-])[O-].O=C([O-])[O-].O=C([O-])[O-].[La+3].[La+3] [Lanthanum carbonate, lanthanum carbonate]
CaOx crystalluria [1]: decrease
calciuria [1]: minor increase
oxaluria [1]: decrease
phosphaturia [1]: striking increase

calciuria (in vivo): increased calciuria
Molecule: [Al] [aluminum]

Molecule: O=C([O-])[O-].[Ca+2] [calcium carbonate]
calciuria (current powerful phosphate binders): increased calciuria

gastro-intestinal absorption [2]: 0.01%
Molecule: [La] [lanthanum]

B1: reloxaliase: an oral enzyme therapeutic (Allena Pharmaceuticals) (protein, UniProt O34714 1-385, looked up)
Oxalate decarboxylase OxdC: MKKQNDIPQPIRGDKGATVKIPRNIERDRQNPDMLVPPETDHGTVSNMKFSFSDTHNRLEKGGYAREVTVRELPISENLASVNMRLKPGAIRELHWHKEAEWAYMIYGSARVTIVDEKGRSFIDDVGEGDLWYFPSGLPHSIQALEEGAEFLLVFDDGSFSENSTFQLTDWLAHTPKEVIAANFGVTKEEISNLPGKEKYIFENQLPGSLKDDIVEGPNGEVPYPFTYRLLEQEPIESEGGKVYIADSTNFKVSKTIASALVTVEPGAMRELHWHPNTHEWQYYISGKARMTVFASDGHARTFNYQAGDVGYVPFAMGHYVENIGDEPLVFLEIFKDDHYADVSLNQWLAMLPETFVQAHLDLGKDFTDVLSKEKHPVVKKKCSK
modifications: crosslinked enzyme crystals
least square mean treatment difference ([3]; versus placebo, p=0.004): −14.3%
mean reduction in average 24-hour urinary oxalate excretion ([3]; weeks 1-4, placebo 9.7%): 22.6%
